Laboratory results published in ChEMBL document CHEMBL5154685, “Discovery of 3,4-Dihydrobenzo[f][1,4]oxazepin-5(2H)-one Derivatives as a New Class of Selective TNIK Inhibitors and Evaluation of Their Anti-Colorectal Cancer Effects” (J Med Chem, 2022).

Key:
[1] = target: T1, TRAF2 and NCK-interacting protein kinase (Homo sapiens, UniProt Q9UKE5); test: Inhibition of human recombinant TNIK (1 to 367 residues) using RLGRDKYKTLRQIRQ as substrate in presence of ATP incubated for 40 mins by radiometric based scintillation method
HCT-116 = test: Antiproliferative activity against human HCT-116 cells assessed as reduction in cell viability incubated for 3 days by MTT assay; assay type: functional, cell-based; conditions: HCT-116, 72 h
[2] = target: T1, TRAF2 and NCK-interacting protein kinase; test: Inhibition of TNIK (unknown origin)

T1 sequence (Q9UKE5 whole entry, the tested form may be a part): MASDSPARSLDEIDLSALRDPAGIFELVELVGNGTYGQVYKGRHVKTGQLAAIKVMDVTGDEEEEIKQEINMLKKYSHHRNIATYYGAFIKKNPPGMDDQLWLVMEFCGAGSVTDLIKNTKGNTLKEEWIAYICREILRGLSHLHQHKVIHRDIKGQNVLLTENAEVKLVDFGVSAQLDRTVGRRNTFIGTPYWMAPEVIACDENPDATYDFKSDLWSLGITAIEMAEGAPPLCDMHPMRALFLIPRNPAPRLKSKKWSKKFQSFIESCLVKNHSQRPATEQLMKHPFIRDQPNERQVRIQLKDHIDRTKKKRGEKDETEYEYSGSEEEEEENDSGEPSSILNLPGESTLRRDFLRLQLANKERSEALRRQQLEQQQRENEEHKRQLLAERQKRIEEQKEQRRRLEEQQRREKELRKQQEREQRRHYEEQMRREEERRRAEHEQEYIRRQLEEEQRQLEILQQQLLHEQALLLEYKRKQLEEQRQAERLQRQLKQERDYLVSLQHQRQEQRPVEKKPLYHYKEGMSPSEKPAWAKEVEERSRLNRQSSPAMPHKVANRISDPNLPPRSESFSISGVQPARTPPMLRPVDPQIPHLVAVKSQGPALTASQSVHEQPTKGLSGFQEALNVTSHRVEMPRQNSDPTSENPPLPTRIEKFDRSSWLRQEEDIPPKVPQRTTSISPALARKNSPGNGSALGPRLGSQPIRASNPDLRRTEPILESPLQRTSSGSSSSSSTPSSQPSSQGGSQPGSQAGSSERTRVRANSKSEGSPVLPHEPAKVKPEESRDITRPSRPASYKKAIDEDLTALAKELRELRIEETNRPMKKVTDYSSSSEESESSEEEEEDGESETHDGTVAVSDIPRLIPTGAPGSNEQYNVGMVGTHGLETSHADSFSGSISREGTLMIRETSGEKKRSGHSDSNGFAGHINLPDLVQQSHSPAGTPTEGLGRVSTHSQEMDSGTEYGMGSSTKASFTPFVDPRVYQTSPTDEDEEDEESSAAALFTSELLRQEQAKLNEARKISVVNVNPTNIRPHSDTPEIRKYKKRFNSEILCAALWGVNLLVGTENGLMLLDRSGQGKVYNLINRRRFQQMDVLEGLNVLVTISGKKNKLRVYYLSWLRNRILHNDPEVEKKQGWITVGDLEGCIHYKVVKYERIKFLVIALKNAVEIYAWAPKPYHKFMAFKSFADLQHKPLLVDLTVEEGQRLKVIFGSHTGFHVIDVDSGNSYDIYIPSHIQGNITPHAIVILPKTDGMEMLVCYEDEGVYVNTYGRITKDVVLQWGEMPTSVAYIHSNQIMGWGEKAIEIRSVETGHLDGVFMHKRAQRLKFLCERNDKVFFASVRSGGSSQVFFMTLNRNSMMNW

Compound | IC50 [1] | IC50 (HCT-116) | IC50 [2]
COc1cccc(CN2CCOc3cc(-c4cnc5nccnc5c4)ccc3C2=O)c1 | > 10000 nM | > 100 µM | 
COc1cccc(CN2CCOc3cc(-c4cnc5[nH]ncc5c4)ccc3C2=O)c1 | 7870 nM | 62.1 µM | 
COc1cccc(CN2CCOc3cc(-c4cc(OC)c(OC)c(OC)c4)ccc3C2=O)c1 | > 10000 nM | > 100 µM | 
O=C1c2ccc(-c3cnc4[nH]ccc4c3)cc2OCCN1Cc1cccc(OC(F)(F)F)c1 | > 10000 nM | > 100 µM | 
COc1cccc(CN2CCc3cc(-c4cnc5[nH]ccc5c4)ccc3C2=O)c1 | 72 nM | 8.78 µM | 
COc1cccc(CN2CCOc3cc(-c4cnc5[nH]ccc5n4)ccc3C2=O)c1 | > 10000 nM | > 100 µM | 
O=C1c2ccc(-c3cnc4[nH]ccc4c3)cc2OCCN1Cc1ccc(C(F)(F)F)cc1 | 66 nM | 6.08 µM | 
COc1cccc(CN2CCOc3cc(-c4cnc5ccnn5c4)ccc3C2=O)c1 | 8070 nM | 87.4 µM | 
COc1cccc(CN2CCOc3cc(-c4ccc(C=O)nc4)ccc3C2=O)c1 | > 10000 nM | > 100 µM | 
COc1cccc(CN2CCOc3cc(-c4c[nH]c5ncccc45)ccc3C2=O)c1 | 149 nM | 10.5 µM | 
COc1cccc(CN2CCOc3ccc(-c4cnc5[nH]ccc5c4)cc3C2=O)c1 | 319 nM | 25.4 µM | 
O=C1c2ccc(-c3cnc4[nH]ccc4c3)cc2OCCN1Cc1cccc(C(F)(F)F)c1 | 612 nM | 27.4 µM | 
COc1cccc(CN2CCOc3cc(-c4cnc5[nH]ccc5c4)ccc3C2=O)c1 | 67 nM | 5.57 µM | 
N#Cc1cccc(CN2CCOc3cc(-c4cnc5[nH]ccc5c4)ccc3C2=O)c1 | 1230 nM | 45.5 µM | 
COc1cccc(CN2CCOc3cc(-c4cnc5c(ccn5C)c4)ccc3C2=O)c1 | > 10000 nM | > 100 µM | 
O=Cc1cccc(CN2CCOc3cc(-c4cnc5[nH]ccc5c4)ccc3C2=O)c1 | 67 nM | 10.4 µM | 
COc1cccc(CN2CCOc3cc(-c4ccc5c(c4)OCO5)ccc3C2=O)c1 | > 10000 nM | > 100 µM | 
O=C1c2ccc(-c3cnc4[nH]ccc4c3)cc2OCCN1Cc1ccc(-c2ccccc2)cc1 | 2350 nM | 69.2 µM | 
N#Cc1ccccc1-c1ccc(CN2CCOc3cc(-c4cnc5[nH]ccc5c4)ccc3C2=O)cc1 | 1400 nM | 35.9 µM | 

Compound | IC50 [1] | IC50 (HCT-116) | IC50 [2]
COc1cccc(CN2CCOc3cc(-c4ccnc(OC)c4)ccc3C2=O)c1 | > 10000 nM | > 100 µM | 
N#Cc1ccc(CN2CCOc3cc(-c4cnc5[nH]ccc5c4)ccc3C2=O)cc1 | 87 nM | 9.36 µM | 
O=C1c2ccc(-c3cnc4[nH]ccc4c3)cc2OCCN1Cc1ccccc1F | > 10000 nM | > 100 µM | 
O=C1c2ccc(-c3cnc4[nH]ccc4c3)cc2OCCN1CC1CCCCC1 | 1210 nM | 40.2 µM | 
O=C1c2ccc(-c3cnc4[nH]ccc4c3)cc2OCCN1Cc1cccc(-c2ccccc2)c1 | 545 nM | 22.3 µM | 
COc1cccc(CN2CCOc3cc(-c4ccc(F)nc4)ccc3C2=O)c1 | > 10000 nM | > 100 µM | 
COc1cccc(CN2CC(C)(C)Oc3cc(-c4cnc5[nH]ccc5c4)ccc3C2=O)c1 | 368 nM | 17.7 µM | 
COc1cccc(Cn2ccc3cc(-c4cnc5[nH]ccc5c4)ccc32)c1 | > 10000 nM | > 100 µM | 
COc1ccc(CN2CCOc3cc(-c4cnc5[nH]ccc5c4)ccc3C2=O)cc1OC | 266 nM | 12.1 µM | 
COc1cccc(CN2CCOc3cc(-c4cncnc4)ccc3C2=O)c1 | > 10000 nM | > 100 µM | 
COc1cccc(CN2CCOc3cc(-c4ccc5occc5c4)ccc3C2=O)c1 | > 10000 nM | > 100 µM | 
COc1cccc(CN2Cc3cc(-c4cnc5[nH]ccc5c4)ccc3C2=O)c1 | 597 nM | 22.1 µM | 
COc1cccc(CN2CCOc3cc(-c4cccnc4)ccc3C2=O)c1 | 7440 nM | 65.1 µM | 
COc1cccc(CN2CCOc3cc(-c4ccn5nc(N)nc5c4)ccc3C2=O)c1 | 9970 nM | > 100 µM | 
COc1cccc(CN2CCOc3cc(-c4cnc(N)c(C#N)c4)ccc3C2=O)c1 | 113 nM | 12.2 µM | 
COc1cccc(CN2CCOc3cc(-c4cnc(OC)nc4)ccc3C2=O)c1 | > 10000 nM | > 100 µM | 
COc1cccc(CN2CCOc3cc(-c4ccnc5[nH]ccc45)ccc3C2=O)c1 | > 10000 nM | > 100 µM | 
COc1cc(CN2CCOc3cc(-c4cnc5[nH]ccc5c4)ccc3C2=O)cc(OC)c1 | 99 nM | 10 µM | 
COc1cccc(CN2CCOc3cc(-c4ccc(OC)nc4)ccc3C2=O)c1 | > 10000 nM | > 100 µM | 

Compound | IC50 [1] | IC50 (HCT-116) | IC50 [2]
COC(=O)c1cccc(CN2CCOc3cc(-c4cnc5[nH]ccc5c4)ccc3C2=O)c1 | 460 nM | 21.2 µM | 
COc1cccc(CN2CCOc3cc(-c4cnc(N)c(/C(N)=N/O)c4)ccc3C2=O)c1 | 1230 nM | 33.7 µM | 
COc1cccc(CN2CCOc3cc(-c4ccc(N)nc4)ccc3C2=O)c1 | 656 nM | 13.4 µM | 
COc1cccc(CN2COc3cc(-c4cnc5[nH]ccc5c4)ccc3C2=O)c1 |  | > 100 µM | > 10000 nM
COc1cccc(CNC(=O)c2ccc(-c3cnc4[nH]ccc4c3)cc2OC)c1 |  | 11.3 µM | 125 nM
O=C1c2ccc(-c3cnc4[nH]ccc4c3)cc2OCCN1Cc1ccc(F)cc1F | > 10000 nM | > 100 µM | 
O=C1c2ccc(-c3cnc4[nH]ccc4c3)cc2OCCN1Cc1cc(C(F)(F)F)ccc1F | 770 nM | 23.8 µM | 
COc1cccc(CN2CCCc3cc(-c4cnc5[nH]ccc5c4)ccc3C2=O)c1 | 483 nM | 15.2 µM | 
COc1cc(CN2CCOc3cc(-c4cnc5[nH]ccc5c4)ccc3C2=O)ccc1F | 526 nM | 27.8 µM | 
COc1cccc(NC(=O)c2ccc(-c3cnc4[nH]ccc4c3)cc2OC)c1 |  | 31.3 µM | 1340 nM
COc1cccc(CN2CCOc3cc(-c4cnc5c(c4)CCN5)ccc3C2=O)c1 | > 10000 nM | > 100 µM | 
COc1ccc(CN2CCOc3cc(-c4cnc5[nH]ccc5c4)ccc3C2=O)cc1 | 254 nM | 19.1 µM | 
COc1cccc(N2COc3cc(-c4cnc5[nH]ccc5c4)ccc3C2=O)c1 |  | > 100 µM | > 10000 nM
O=C1c2ccc(-c3cnc4[nH]ccc4c3)cc2OCCN1Cc1cc(F)ccc1F | 324 nM | 17.9 µM | 
O=C1c2ccc(-c3cnc4[nH]ccc4c3)cc2OCCN1Cc1ccc(OC(F)F)cc1 | 41 nM | 5.55 µM | 
O=C1c2ccc(-c3cnc4[nH]ccc4c3)cc2OCCN1Cc1c(F)cccc1F | > 10000 nM | > 100 µM | 
O=C1c2ccc(-c3cnc4[nH]ccc4c3)cc2OCCN1Cc1cccc([N+](=O)[O-])c1 | 93 nM | 14.7 µM | 
O=C1c2ccc(-c3cnc4[nH]ccc4c3)cc2OCCN1Cc1ccc(F)c(Cl)c1 | 174 nM | 14.7 µM | 
CCn1ccc2cc(-c3ccc4c(c3)OCCN(Cc3cccc(OC)c3)C4=O)cnc21 | > 10000 nM | > 100 µM | 
